Test results from ChEMBL document CHEMBL1201862, “PubChem BioAssay data set” (2004).
The source made the active and inactive calls.

How the values were obtained:
[1] = target: Long-chain-fatty-acid--AMP ligase FadD28 (Mycobacterium tuberculosis, UniProt P9WQ59); experiment: Fluorescence polarization aasay to screen for inhibitors that compete for the binding of FadD28 to a bisubstrate Measured in Biochemical System Using Plate Reader - 2147-01_Inhibitor_Dose_CherryPick_Activity.; type: functional, Mycobacterium tuberculosis H37Rv
[2] = target: Oxysterols receptor LXR-beta (Homo sapiens, UniProt P55055); type: functional, cell-based;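 also: Cell-based luminescence dose-response assay of agonist activity at LXR, run as a confirmatory counterscreen to a daf-12 agonist screen; HEK293 cells with Gal4-LXR fusion and GAL4-driven luciferase reporter; agonist potency from rising luciferase signal of a Gal4-LXR reporter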
cells [3] = experiment: cells
[4] = inhibition of ADAM10 peptide cleavage – biochemical, FRET peptide substrate, recombinant human ADAM10, selectivity assay for ADAM17 exosite inhibitor project, dose response (AID 743259);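 also: ADAM10 enzyme cleaving a FRET peptide substrate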
[5] = target: Disintegrin and metalloproteinase domain-containing protein 17 (Homo sapiens, UniProt P78536); experiment: exosite inhibitors of ADAM17, dose response, biochemical (AID 743260)
[6] = target: Eukaryotic translation initiation factor 4E (Mus musculus, UniProt P63073); experiment: blockers of eIF4G binding by eIF4E – biochemical, TR-FRET, dose response (AID 855); type: functional;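 also: potency for disrupting eIF4E binding to eIF4GI seen as loss of FRET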
[7] = target: RNA-editing ligase 1, mitochondrial (Trypanosoma brucei brucei, UniProt P86926); experiment: inhibition of trypanosome RNA editing ligase – biochemical, fluorescence, Trypanosoma brucei, dose response (AID 1117295); type: functional
[8] = Luminescence Cell-Based Dose Retest to Confirm Inhibitors of Cancer Stem Cells. [Related pubchem assays (depositor defined):AID2717, AID2721]; type: functional; details: Homo sapiens
[9] = target: Mitogen-activated protein kinase 10 (Homo sapiens, UniProt P53779); experiment: Dose response biochemical screening assay for inhibitors of c-Jun N-Terminal Kinase 3 (JNK3). [Related pubchem assays: 746 ]
[10] = HGIII-sPLA2 enzyme inhibition potency – biochemical, QFRET, IC50, dose response (AID 743457);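 also: green fluorescence rise as the enzyme cleaves BODIPY PC-A2 in liposomes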
[11] = target: T1, Heat shock factor protein 1 (Mus musculus, UniProt P38532); experiment: enhancement of HSF1-driven luciferase signal – cell-based, NIH3T3, luminescence, dose retest, confirmation (AID 435004); type: functional;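 also: stress induced by proteasome inhibitor MG132 added 30 min after compound; luciferase reporter driven by HSF1 response element in NIH3T3 cells; actives raise luminescence as potentiators of the MG132 stress response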
T1 sequence (P38532 whole entry): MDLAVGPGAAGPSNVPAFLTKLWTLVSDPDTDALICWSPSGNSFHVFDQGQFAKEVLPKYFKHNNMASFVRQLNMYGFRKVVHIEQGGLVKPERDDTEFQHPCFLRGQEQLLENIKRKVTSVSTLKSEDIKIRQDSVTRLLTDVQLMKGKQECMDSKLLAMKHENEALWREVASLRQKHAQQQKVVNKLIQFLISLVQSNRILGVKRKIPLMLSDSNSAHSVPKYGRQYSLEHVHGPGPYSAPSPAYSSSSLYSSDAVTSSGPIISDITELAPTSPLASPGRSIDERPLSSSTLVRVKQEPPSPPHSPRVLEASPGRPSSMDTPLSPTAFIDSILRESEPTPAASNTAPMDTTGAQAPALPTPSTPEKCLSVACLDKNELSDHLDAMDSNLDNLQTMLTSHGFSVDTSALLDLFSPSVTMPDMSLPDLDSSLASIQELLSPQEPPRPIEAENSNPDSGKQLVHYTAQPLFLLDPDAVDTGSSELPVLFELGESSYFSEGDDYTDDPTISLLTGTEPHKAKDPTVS

[12] = Luminescent dose response cell-based high throughput screening assay for inhibitors of the Janus kinase 2 mutant JAK2V617F. [Related pubchem assays: 1446 (Primary screen.), 1521 (Confirmation assay.), 1486 (Counter screen.)]; type: functional
fMet-Leu-Phe receptor = target: T2, fMet-Leu-Phe receptor (Homo sapiens, UniProt P21462); experiment: formyl peptide receptor binders – dose response (AID 519); type: functional
T2 sequence (P21462 whole entry): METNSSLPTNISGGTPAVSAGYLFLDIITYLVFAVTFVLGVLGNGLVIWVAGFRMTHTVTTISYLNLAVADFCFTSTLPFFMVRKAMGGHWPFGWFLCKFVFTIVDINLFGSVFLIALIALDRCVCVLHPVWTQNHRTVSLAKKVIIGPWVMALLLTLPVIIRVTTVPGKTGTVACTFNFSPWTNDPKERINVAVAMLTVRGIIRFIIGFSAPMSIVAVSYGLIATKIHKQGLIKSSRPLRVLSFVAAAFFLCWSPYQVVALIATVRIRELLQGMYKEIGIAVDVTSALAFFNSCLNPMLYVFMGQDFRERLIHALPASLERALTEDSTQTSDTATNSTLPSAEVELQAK

Major prion protein = Major prion protein (Homo sapiens, UniProt P04156); type: functional, cell-based
cells [13] = experiment: cells; remark: listed apart in the source
[14] = HIV-1 Vif–A3G interaction blockers – biochemical, TR-FRET, GST-Vif 1-94, biotin-A3G peptide, dose response retest, primary screen (AID 1117319); type: functional;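 also: TR-FRET signal of purified GST-Vif binding a biotinylated A3G peptide; inhibitors lower the FRET signal by blocking Vif and A3G binding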
[15] = OVCAR-3 cell viability loss – plate reader, dry powder samples, PAX8 inhibitor project, dose response (AID 743044); type: functional, cell-based
[16] = OVCAR8 cell viability loss – plate reader, dry powder samples, PAX8 project, dose response (AID 743197); type: functional, cell-based; details: OVCAR-8
Paired box protein Pax-8 = Paired box protein Pax-8 (Homo sapiens, UniProt Q06710); experiment: PAX8 transcriptional activity inhibition in RMG-I – RMG-I cells, luciferase, cherry-pick, dose response (AID 687027); type: functional, cell-based;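 also: luciferase reporter driven by Pax8 target thyroperoxidase promoter measured by SteadyGlo luminescence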

Cn1c(=O)c2cc(NC(=S)NC3CCCCC3)ccc2n1Cc1ccc(Cl)cc1
AC50 [1]: 58 µM (active)

Fc1cccc(Cl)c1/C=C/c1cnc2ccccc2n1
EC50 [2]: > 67.5 µM (inactive)
EC50 (cells [3]): > 67.5 µM (inactive)

C=CCC[C@@H](Cc1ccc(F)cc1)C(=O)OC[C@@H]1CCCN1C(=O)[C@H](CC=C)CC(=O)N[C@H](CO)Cc1ccccc1
IC50 [4]: 15.2 µM (inactive)
IC50 [5]: > 69.5 µM (inactive)

COc1ccc(CN2C(=O)c3cccnc3C2Nc2cc(Cl)ccc2OC)cc1 (centres undefined)
IC50 [6]: 14.4 µM (active)
IC50 [7]: 16.1 µM (inactive)
AC50 [8]: > 195 µM (inactive)

CCCN1Cc2cccc(C(=O)NCc3ccccc3)c2C1=O
IC50 [9]: 57.8 µM (not active)

Cc1c(Cl)c(C(=O)NN=C(S)Nc2ccccc2)nn1C
IC50 [10]: > 122 µM (inactive)

Cc1cccc(OCC(=O)Nc2cc(C)ccc2O)c1
EC50 [11]: 4.61 µM (active)
IC50 [12]: 0.676 µM (active)
Ki (fMet-Leu-Phe receptor): > 66.7 µM (inactive)

CCc1nc2ccc(C(=O)Nc3ccc4c(c3)OCC(=O)N4)cn2c1N(CC)Cc1cccc(Br)c1
IC50 [4]: > 69.5 µM (inactive)
IC50 [5]: > 69.5 µM (inactive)

Cc1nn(C(C)C(=O)O)c(=O)c2c1sc1ccccc12 (centres undefined)
IC50 (Major prion protein): 8.45 µM (active)
IC50 (cells [13]): > 138 µM (inactive)
IC50 [9]: > 93.1 µM (not active)

Cc1cc2c(cc1C)NP(=S)(c1ccccc1)N2
EC50 [2]: > 67.6 µM (inactive)
EC50 (cells [3]): > 67.6 µM (inactive)

CCC1S/C(=C(\C#N)C(=O)NCc2ccco2)N(c2ccc(F)cc2)C1=O (centres undefined)
IC50 [14]: > 100 µM (active)

C[C@H](CO)N1C[C@H](C)[C@@H](CN(C)Cc2ccc(Cl)c(Cl)c2)Oc2ccc(NS(=O)(=O)c3ccccc3)cc2CC1=O
AC50 [15]: 39.7 µM (active)
AC50 [16]: 67.9 µM (active)
AC50 (Paired box protein Pax-8): 9.45 µM (active)
